In patent publication US20240393292A1, “ALLERGY ANTIGEN AND EPITOPE THEREOF” (HOYU CO., LTD., priority 2019, published 2024):
Each block holds one substance with its values, some of them ahead of it.

Tested on: IgE antibodies from patients
Assay: Wheat epitope mapping (2): overlapping 10-amino-acid peptide fragments shifted by one amino acid;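 for Rank of partial sequence as epitope binding to IgE antibody: key = sequence deemed particularly important within the common 15-residue sequence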;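 for epitope sequence binding to IgE antibody, rank (Key/Preferably/More preferably): key of grades: preferably = shorter partial sequence still acting as epitope; more preferably = sequence improving IgE binding; key = particularly important sequence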
Format: binding, human
Method in brief: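 Residual binding was banded as <30% none, 30–<50% poor, 50–<70% somewhat poor and ≥70% retained, relative to the parent overlapping sequence set to 100%. Values were chemiluminescent IgE signals from patient sera after subtracting secondary-antibody-only controls. The peptides were spot-synthesised 10-mers shifted by one amino acid.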

[1] = serum of patient P34 (WDEIA), sequence without X
[2] = serum of patient G7 (adult, general immediate type allergy to wheat), sequence without X
[3] = serum of patient P35 (WDEIA), sequence without X
[4] = serum of patient P53 (child, general immediate type allergy to wheat), partial sequence
[5] = serum of patient P12 (WDEIA), sequence without X
[6] = serum of patient G3 (adult, general immediate type allergy to wheat), partial sequence
[7] = serum of patient G6 (adult, general immediate type allergy to wheat), sequence without X
[8] = serum of patient P50 (child, general immediate type allergy to wheat), sequence without X
[9] = serum of patient G9 (adult, general immediate type allergy to wheat)
[10] = serum of patient P9 (WDEIA), sequence without X
[11] = serum of patient P30 (WDEIA), partial sequence

- Rank of partial sequence as epitope binding to IgE antibody [1]: Key
Substance: 1485 (SQQQA; REGION 1..5: note = epitope) [compound 1485]

- epitope sequence binding to IgE antibody, rank (Key/Preferably/More preferably) (serum of patient P9 (WDEIA)): Key
Substance: 1793 (SGKELEALPK; REGION 1..10: note = epitope) [compound 1793]

- Epitope sequence binding to IgE antibody, rank of the sequence (serum of patient P36 (WDEIA), sequence without X): Key
Substance: 1254 (PIQQQP; REGION 1..6: note = epitope) [compound 1254]

- Epitope sequence binding to IgE antibody, rank of the sequence (serum of patient P4 (WDEIA), sequence without X): Key
Substance: 1415 (YLQPQQPIS; REGION 1..9: note = epitope) [compound 1415]

- Rank of partial sequence as epitope binding to IgE antibody [2]: Preferably
Substance: 1563 (QVPLVQQQQ; REGION 1..9: note = epitope) [compound 1563]

- Rank of partial sequence as epitope binding to IgE antibody (serum of patient P15 (WDEIA), sequence without X): Key
Substance: 1431 (YLQPQQP; REGION 1..7: note = epitope) [compound 1431]

- Epitope sequence binding to IgE antibody, rank of the sequence [3]: Preferably
Substance: 1401 (KPWQQQ; REGION 1..6: note = epitope) [compound 1401]

- Epitope sequence binding to IgE antibody, rank of the sequence [4]: Key
Substance: 2597 (QQSTYQLV; REGION 1..8: note = epitope) [compound 2597]

- Epitope sequence binding to IgE antibody, rank of the sequence (Key/Preferably/More preferably) [1]: Key
Substance: 2327 (RYDAIRAII; REGION 1..9: note = epitope) [compound 2327]

- Epitope sequence binding to IgE antibody, rank of the sequence [5]: Key
Substance: 1313 (NVEN; REGION 1..4: note = epitope) [compound 1313]

- epitope sequence binding to IgE antibody, rank (Key/Preferably/More preferably) (serum of patient P14 (WDEIA)): Key
Substance: 1927 (QFPGQQ; REGION 1..6: note = epitope) [compound 1927]

- Epitope sequence binding to IgE antibody, rank of the sequence [2]: Preferably
Substance: 1365 (SINVEN; REGION 1..6: note = epitope) [compound 1365]

- Rank of partial sequence as epitope binding to IgE antibody [3]: Key
Substance: 1643 (PDKVPFVPIS; REGION 1..10: note = epitope) [compound 1643]

- Epitope sequence binding to IgE antibody, rank of the sequence [6]: Key
Substance: 2624 (AKPLL; REGION 1..5: note = epitope) [compound 2624]

- Epitope sequence binding to IgE antibody, rank of the sequence [2]: Key
Substance: 1296 (ILPRSDCKV; REGION 1..9: note = epitope) [compound 1296]

- Rank of partial sequence as epitope binding to IgE antibody [5]: More preferably
Substance: 1527 (QVPLVQQQQ; REGION 1..9: note = epitope) [compound 1527]

- Epitope sequence binding to IgE antibody, rank of the sequence [6]: Key
Substance: 2605 (QLVQ; REGION 1..4: note = epitope) [compound 2605]

- Epitope sequence binding to IgE antibody, rank of the sequence [4]: Preferably
Substance: 2601 (QQSTYQLVQ; REGION 1..9: note = epitope) [compound 2601]

- epitope sequence binding to IgE antibody, rank (Key/Preferably/More preferably) (serum of patient P2 (WDEIA)): Key
Substance: 1897 (VPLVQQ; REGION 1..6: note = epitope) [compound 1897]

- Epitope sequence binding to IgE antibody, rank of the sequence (Key/Preferably/More preferably) [7]: Key
Substance: 2264 (NYRVAI; REGION 1..6: note = epitope) [compound 2264]

- Epitope sequence binding to IgE antibody, rank of the sequence (serum of patient P51 (child, general immediate type allergy to wheat), partial sequence): Preferably
Substance: 2514 (SFQPSQLNPQ; REGION 1..10: note = epitope) [compound 2514]

- Rank of partial sequence as epitope binding to IgE antibody [1]: Key
Substance: 1640 (DKVPFVPISG; REGION 1..10: note = epitope) [compound 1640]

- Rank of partial sequence as epitope binding to IgE antibody [8]: Preferably
Substance: 1590 (QPFPQTQQPQ; REGION 1..10: note = epitope) [compound 1590]

- Epitope sequence binding to IgE antibody, rank of the sequence (Key/Preferably/More preferably) [2]: Preferably
Substance: 2417 (RCAYVTEIVL; REGION 1..10: note = epitope) [compound 2417]

- Epitope sequence binding to IgE antibody, rank of the sequence (Key/Preferably/More preferably) [1]: Key
Substance: 2395 (TEIV; REGION 1..4: note = epitope) [compound 2395]

- epitope sequence binding to IgE antibody, rank (Key/Preferably/More preferably) [9]: Key
Substance: 1787 (KEVSSYLK; REGION 1..8: note = epitope) [compound 1787]

- Epitope sequence binding to IgE antibody, rank of the sequence (serum of patient P18 (WDEIA), partial sequence): Key
Substance: 2718 (GIGTVPVGRV; REGION 1..10: note = epitope) [compound 2718]

- Epitope sequence binding to IgE antibody, rank of the sequence (Key/Preferably/More preferably) (serum of patient P32 (WDEIA), sequence without X): Key
Substance: 2240 (IRNYRVAI; REGION 1..8: note = epitope) [compound 2240]

- Epitope sequence binding to IgE antibody, rank of the sequence (serum of patient P22 (WDEIA), partial sequence): Key
Substance: 2561 (LVQQL; REGION 1..5: note = epitope) [compound 2561]

- Epitope sequence binding to IgE antibody, rank of the sequence (serum of patient G9 (adult, general immediate type allergy to wheat), partial sequence): Key
Substance: 2612 (QLVQQLCC; REGION 1..8: note = epitope) [compound 2612]

- Rank of partial sequence as epitope binding to IgE antibody (serum of patient G3 (adult, general immediate type allergy to wheat), sequence without X): Key
Substance: 1668 (FVPISG; REGION 1..6: note = epitope) [compound 1668]

- epitope sequence binding to IgE antibody, rank (Key/Preferably/More preferably) (serum of patient P34 (WDEIA)): Key
Substance: 1821 (SGKELEALPK; REGION 1..10: note = epitope) [compound 1821]

- Epitope sequence binding to IgE antibody, rank of the sequence [10]: Preferably
Substance: 1378 (QQPLPPQQQP; REGION 1..10: note = epitope) [compound 1378]

- epitope sequence binding to IgE antibody, rank (Key/Preferably/More preferably) (serum of patient P22 (WDEIA)): More preferably
Substance: 1944 (QFPGQQQ; REGION 1..7: note = epitope) [compound 1944]

- Epitope sequence binding to IgE antibody, rank of the sequence (Key/Preferably/More preferably) (serum of patient G9 (adult, general immediate type allergy to wheat), sequence without X): Preferably
Substance: 2305 (LGGIDK; REGION 1..6: note = epitope) [compound 2305]

- Epitope sequence binding to IgE antibody, rank of the sequence (Key/Preferably/More preferably/Further preferably) [8]: More preferably
Substance: 2405 (RCAYVTEIVL; REGION 1..10: note = epitope) [compound 2405]

- Epitope sequence binding to IgE antibody, rank of the sequence (Key/Preferably/More preferably) (serum of patient P28 (WDEIA), sequence without X): Key
Substance: 2441 (KAWSGK; REGION 1..6: note = epitope) [compound 2441]

- Epitope sequence binding to IgE antibody, rank of the sequence (Key/Preferably/More preferably/Further preferably) [8]: Key
Substance: 2248 (IRNYRVAI; REGION 1..8: note = epitope) [compound 2248]

- Epitope sequence binding to IgE antibody, rank of the sequence (serum of patient P19 (WDEIA), sequence without X): Key
Substance: 1185 (QQFPPQQP; REGION 1..8: note = epitope) [compound 1185]

- Rank of partial sequence as epitope binding to IgE antibody (serum of patient P16 (WDEIA), sequence without X): More preferably
Substance: 1577 (PFPQTQQ; REGION 1..7: note = epitope) [compound 1577]

- Epitope sequence binding to IgE antibody, rank of the sequence [11]: Key
Substance: 2738 (VPVGR; REGION 1..5: note = epitope) [compound 2738]

- Epitope sequence binding to IgE antibody, rank of the sequence [10]: Key
Substance: 1420 (SQQQA; REGION 1..5: note = epitope) [compound 1420]

- Epitope sequence binding to IgE antibody, rank of the sequence (serum of patient P29 (WDEIA), partial sequence): Key
Substance: 2510 (PSQLNPQ; REGION 1..7: note = epitope) [compound 2510]

- Epitope sequence binding to IgE antibody, rank of the sequence (Key/Preferably/More preferably) [7]: Key
Substance: 2339 (AIIYS; REGION 1..5: note = epitope) [compound 2339]

- epitope sequence binding to IgE antibody, rank (Key/Preferably/More preferably) (serum of patient P14 (WDEIA)): Preferably
Substance: 1926 (QQQFPGQQQ; REGION 1..9: note = epitope) [compound 1926]

- Epitope sequence binding to IgE antibody, rank of the sequence (serum of patient P26 (WDEIA), partial sequence): Key
Substance: 2723 (KIGG; REGION 1..4: note = epitope) [compound 2723]

- Epitope sequence binding to IgE antibody, rank of the sequence (Key/Preferably/More preferably) (serum of patient P7 (WDEIA), sequence without X): Key
Substance: 2221 (IRNYR; REGION 1..5: note = epitope) [compound 2221]

- Epitope sequence binding to IgE antibody, rank of the sequence [11]: Preferably
Substance: 2736 (YKIGGIGTVP; REGION 1..10: note = epitope) [compound 2736]

- Rank of partial sequence as epitope binding to IgE antibody [1]: More preferably
Substance: 1547 (QVPLVQQQQ; REGION 1..9: note = epitope) [compound 1547]

- Epitope sequence binding to IgE antibody, rank of the sequence [10]: Key
Substance: 1220 (IQQQP; REGION 1..5: note = epitope) [compound 1220]

- epitope sequence binding to IgE antibody, rank (Key/Preferably/More preferably) (serum of patient P33 (WDEIA)): Key
Substance: 1881 (TVRTLQR; REGION 1..7: note = epitope) [compound 1881]

- Epitope sequence binding to IgE antibody, rank of the sequence (serum of patient P22 (WDEIA), sequence without X): Preferably
Substance: 1332 (SINVEN; REGION 1..6: note = epitope) [compound 1332]

- Epitope sequence binding to IgE antibody, rank of the sequence (Key/Preferably/More preferably/Further preferably) [8]: Key
Substance: 2296 (GIDK; REGION 1..4: note = epitope) [compound 2296]

- epitope sequence binding to IgE antibody, rank (Key/Preferably/More preferably) (serum of patient P18 (WDEIA)): Key
Substance: 1760 (EVSSYLKKV; REGION 1..9: note = epitope) [compound 1760]

- Epitope sequence binding to IgE antibody, rank of the sequence (serum of patient P14 (WDEIA), sequence without X): Key
Substance: 1234 (PQQPP; REGION 1..5: note = epitope) [compound 1234]

- Epitope sequence binding to IgE antibody, rank of the sequence (Key/Preferably/More preferably) (serum of patient P52 (child, general immediate type allergy to wheat), sequence without X): Preferably
Substance: 2470 (LKAWSGK; REGION 1..7: note = epitope) [compound 2470]

- epitope sequence binding to IgE antibody, rank (Key/Preferably/More preferably) [9]: Key
Substance: 1894 (VRTLQ; REGION 1..5: note = epitope) [compound 1894]

- Epitope sequence binding to IgE antibody, rank of the sequence (serum of patient G7 (adult, general immediate type allergy to wheat), partial sequence): Key
Substance: 2542 (SSQVSF; REGION 1..6: note = epitope) [compound 2542]
